Results on 23 molecules are retold here after patent US7083962B2, “Carbonyl reductases, polynucleotides comprising DNA encoding the same, methods for producing the same, and methods for producing optically active alcohol utilizing the same” (Daicel Chemical Industries Ltd., priority 2004, dated 2006).

The labels stand for the following.
B1: YGL039w: Saccharomyces cerevisiae carbonyl reductase homolog, SEQ ID NO: 21, expressed in E. coli from pSE-YGD9 (protein, listed as Saccharomyces cerevisiae)
chain: MTTEKTVVFVSGATGFIALHVVDDLLKTGYKVIGSGRSQEKNDGLLKKFKSNPNLSMEIVEDIAAPNAFDKVFQKHGKEIKVVLHIASPVHFNTTDFEKDLLIPAVNGTKSILEAIKNYAADTVEKVVITSSVAALASPGDMKDTSFVVNEESWNKDTWESCQANAVSAYCGSKKFAEKTAWDFLEENQSSIKFTLSTINPGFVFGPQLFADSLRNGINSSSAIIANLVSYKLGDNFYNYSGPFIDVRDVSKAHLLAFEKPECAGQRLFLCEDMFCSQEALDILNEEFPQLKGKIATGEPGSGSTFLTKNCCKCDNRKTKNLLGFQFNKFRDCIVDTASQLLEVQSKS
B2: YGL157w: Saccharomyces cerevisiae carbonyl reductase homolog, SEQ ID NO: 17, expressed in E. coli from pSE-YGP7 (protein, listed as Saccharomyces cerevisiae)
chain: MTTDTTVFVSGATGFIALHIMNDLLKAGYTVIGSGRSQEKNDGLLKKFNNNPKLSMEIVEDIAAPNAFDEVFKKHGKEIKIVLHTASPFHFETTNFEKDLLTPAVNGTKSILEAIKKYAADTVEKVIVTSSTAALVTPTDMNKGDLVITEESWNKDTWDSCQANAVAAYCGSKKFAEKTAWEFLKENKSSVKFTLSTINPGFVFGPQMFADSLKHGINTSSGIVSELIHSKVGGEFYNYCGPFIDVRDVSKAHLVAIEKPECTGQRLVLSEGLFCCQEIVDILNEEFPQLKGKIATGEPATGPSFLEKNSCKFDNSKTKKLLGFQFYNLKDCIVDTAAQMLEVQNEA
B3: YDR541c: Saccharomyces cerevisiae carbonyl reductase homolog, SEQ ID NO: 25, expressed in E. coli from pSE-YDR1 (protein, listed as Saccharomyces cerevisiae)
chain: MSNTVLVSGASGFIALHILSQLLKQDYKVIGTVRSHEKEAKLLRQFQHNPNLTLEIVPDISHPNAFDKVLQKRGREIRYVLHTASPFHYDTTEYEKDLLIPALEGTKNILNSIKKYAADTVERVVVTSSCTAIITLAKMDDPSVVFTEESWNEATWESCQIDGINAYFASKKFAEKAAWEFTKENEDHIKFKLTTVNPSLLFGPQLFDEDVHGHLNTSCEMINGLIHTPVNASVPDFHSIFIDVRDVALAHLYAFQKENTAGKRLVVTNGKFGNQDILDILNEDFPQLRGLIPLGKPGTGDQVIDRGSTTDNSATRKILGFEFRSLHESVHDTAAQILKKENRL

The test system of the first series is carbonyl reductase. The series can be described thus: Substrate specificity: NADPH-dependent reduction by the carbonyl reductase obtained in Example 1. The series is classed as biochemical, Torulaspora delbrueckii. Particulars: substrate 1 mM, coenzyme NADPH; reduction of 3,4-dimethoxyphenylacetone regarded as 100. On the procedure:
(§1) A reaction solution comprising 50 mM potassium phosphate buffer (pH 6.5), 0.2 mM NADPH, 5 mM 3,4-dimethoxyphenylacetone, and an enzyme is reacted at 30° C. Any decrease in absorbance at 340 nm accompanying a decrease in NADPH is measured. 1U is defined as the amount of enzyme which catalyzes a 1 μmol decrease of NADPH in one minute.
(§2) The enzyme obtained in Example 1 was reacted with various ketones, ketoesters, and soon. The activities of the reduction reactions were expressed as relative activities, where the reduction of 3,4-dimethoxyphenylacetone was regarded as 100 (Table 2) (substrate specificity of carbonyl reductase). The activity of dehydrogenating 1-(3,4-dimethoxyphenyl)-2-propanol was measured as follows: A reaction was performed at 30° C. in a reaction solution comprising 50 mM Tris-HCl buffer (pH 8.5), 2.5 mM NADP^+, 5 mM 1-(3,4-dimethoxyphenyl)-2-propanol, and the enzyme. An increase in absorbance at 340 nm, accompanying NADPH production, was measured. 1 U was defined as the amount of enzyme catalyzing the production of 1 μmol NADPH per minute. In addition, the activity of reducing NADH-dependent 3,4-dimethoxyphenylacetone was measured as follows: A reaction was performed at 30° C. in a reaction solution comprising 50 mM potassium phosphate buffer (pH 6.5), 0.2 mM NADH, 5 mM 3,4-dimethoxyphenylacetone, and the enzyme, and decrease in absorbance at 340 nm, accompanying decrease in NADH, was measured. 1 U was defined as the amount of enzyme catalyzing a decrease of 1 μmol NADH per minute.
`CC12CCC(C(=O)C1=O)C2(C)C` (centres unmarked) [Camphorquinone]: the Relative activity was 644%.

The same series, now with this note: substrate 2 mM, coenzyme NADPH; reduction of 3,4-dimethoxyphenylacetone regarded as 100.
With `O=C(CCl)c1cccc(Cl)c1` [2-Chloro-1-(3′-chlorophenyl)ethanone], the Relative activity is reported as 922%.

Staying with this series, now noted: substrate 20 mM, coenzyme NADPH; reduction of 3,4-dimethoxyphenylacetone regarded as 100.
For the molecule `CC(=O)COC(C)=O` [1-Acetoxy-2-propanone], the Relative activity stood at 24700%.
As for `CC(=O)C(C)=O` [2,3-Butanedione], the Relative activity was determined as 1480%.
Same read-out and setting: then `CCC(=O)C(C)=O` [2,3-Pentanedione], with 2590%; and `CC(=O)CC(C)=O` [2,4-Pentanedione], with 422%.
On the same count and under the same terms, then `CC(=O)OC(C)C(C)=O` (centres unmarked) [2-Acetoxy-3-butanone], with 589%; and `CC(=O)OC1CCCC1=O` (centres unmarked) [2-Acetoxycyclopentanone], with 567%.
On the same count and under the same terms, then `CCC(=O)c1ccc(OC)cc1` [4′-Methoxypropiophenone], with 283%; and `CC(=O)c1ccccc1` [Acetophenone], with 256%; and `CC(=O)CCc1ccccc1` [Benzylacetone], with 739%.
`CCOC(=O)CC(=O)CCl` [Ethyl 4-chloroacetoacetate]: the Relative activity was found to be 6780%.
Regarding `CCOC(=O)CC(C)=O` [Ethyl acetoacetate], the Relative activity stood at 3170%.
Same read-out and setting: then `COCC(C)=O` [Methoxyacetone], with 117%.
On the same count and under the same terms, in the case of `COC(=O)CC(=O)CCl` [Methyl 4-chloroacetoacetate] it was 8040%; in that of `COC(=O)CC(C)=O` [Methyl acetoacetate], 3670%.
On the same count and under the same terms, in the case of `COC(=O)C(C)=O` [Methyl pyruvate] it was 1320%; in that of `CC(=O)COc1ccccc1` [Phenoxy-2-propanone], 939%.

The test system of another series is carbonyl reductase. Kind of series: Activity of dehydrogenating 1-(3,4-dimethoxyphenyl)-2-propanol with NADP+. It counts as biochemical, Torulaspora delbrueckii. Particulars: substrate 5 mM, coenzyme NADP+, dehydrogenation, pH 8.5, 30° C. The protocol:
as §2
`COc1ccc(C[C@@H](C)O)cc1OC` [(R)-1-(3,4-dimethoxyphenyl)-2-propanol]: the Relative activity is 0.0%.
As to `COc1ccc(C[C@H](C)O)cc1OC` [(S)-1-(3,4-dimethoxyphenyl)-2-propanol], the Relative activity was 0.0%.

Test system in another series: not listed separately
The series can be described thus: 3,4-dimethoxyphenylacetone-reducing activity of cell-free extracts of transformed Escherichia coli. It counts as biochemical, Escherichia coli JM109. To be noted: cell-free extracts of E. coli expressing the homolog. The protocol:
as §1
Escherichia coli JM109 strain transformed with plasmid pSE-TDR1, which expresses carbonyl reductase, and plasmid pSG-TDR1, which coexpresses carbonyl reductase and Bacillus subtilis-derived glucose dehydrogenase, was cultured overnight at 30° C. in liquid LB medium containing ampicillin. 0.1 mM IPTG was added, and the strain was further cultured for four hours.
Cells were collected by centrifugation, and then suspended in 50 mM potassium phosphate buffer (pH 6.5) comprising 0.5 M NaCl, 0.02% 2-mercaptoethanol, 2 mM PMSF, and 10% glycerin. Cells were then disrupted by sonication, and centrifuged. The obtained supernatant was used as a cell-free extract. The 3,4-dimethoxyphenylacetone-reducing activity and glucose-dehydrogenating activity of the cell-free extract were measured. The glucose-dehydrogenating activity was measured as follows: Measurements were performed at 30° C. in a reaction solution comprising the enzyme and 100 mM potassium phosphate buffer (pH 6.5), 2.5 mM NAD^+, 100 mM glucose. 1 U was defined as the amount of enzyme to catalyze production of […] of NADH per minute under the aforementioned reaction conditions.
Escherichia coli JM109+strains comprising pSE-YGP7, pSE-YGD9, pSE-YDR1, pSG-YGP7, pSG-YGD9, or pSG-YDR1 were cultured on LB medium comprising ampicillin, induced with 0.1 mM IPTG for four hours, and then centrifuged to collect the cells.
Each of these cell samples was suspended in a cell lysis solution (50 mM KPB pH 8.0, 1 mM EDTA, 0.02% 2-mercaptoethanol, 2 mM PMSF, 10% Glycerol). The cells were ruptured by sonication and then centrifuged to obtain the supernatant, which was used as a cell-free extract.
Turning to B1, the “3,4-dimethoxyphenylacetone reductase activity (in words)” value is recorded as “confirmed to comprise 3,4-dimethoxyphenylacetone reductase activity”.
For the molecule B2, the “3,4-dimethoxyphenylacetone reductase activity (in words)” value was “confirmed to comprise 3,4-dimethoxyphenylacetone reductase activity”.
Take B3: the “3,4-dimethoxyphenylacetone reductase activity (in words)” value is listed as “confirmed to comprise 3,4-dimethoxyphenylacetone reductase activity”.

Test system in a further series: not listed separately
Kind of series: Enzymatic synthesis of (S)-1-(3,4-dimethoxyphenyl)-2-propanol: optical purity and reaction yield. The series is classed as biochemical. To be noted: 0.2 U homolog enzyme, 50 mM 3,4-dimethoxyphenylacetone, overnight, 25° C., pH 6.5. The protocol: A reaction was performed overnight at 25° C. in 1 mL of a reaction solution comprising 200 mM potassium phosphate buffer (pH 6.5), 1 mM NADP^+, 2 U glucose dehydroganase (Wako Pure Chemical Industries, Ltd.), 250 mM glucose, 0.25 U carbonyl reductase, and 50 mM 3,4-dimethoxyphenylacetone. The optical purity of the produced (S)-1-(3,4-dimethoxyphenyl)-2-propanol was measured as follows: One mL of ethyl acetate was added to 0.5 mL of the reaction solution to extract (S)-1-(3,4-dimethoxyphenyl)-2-propanol, and the extraction solvent was desolvated. 0.5 mL of a dissolving solution (n-hexane: isopropanol=4:1) was then added to dissolve the extract, which was then analyzed by liquid chromatography using an optical resolution column. CHIRALCEL OF (4.6 mm×25 cm; Daicel Chemical Industries, Ltd.) was used as the optical resolution column. Chromatography was performed with a wavelength of 220 nm, a flow rate of 1.0 mL/min, and at 40° C. using an eluting solution of n-hexane: isopropanol=4:1.
In addition, the (S)-1-(3,4-dimethoxyphenyl)-2-propanol thus-produced was quantified using gas chromatography, and a yield relative to the raw starting material, 3,4-dimethoxyphenylacetone, was obtained. Specifically, the analysis was performed at a column temperature of 210° C., using Thermon 3000 (10%)-Chromosorb W (AW-DMCS, Mesh 60–80; 3.2 mm×210 cm) with a hydrogen flame ionization detector (FID). The resulting reaction yield was about 95%.
To prepare crude enzyme solution for enzyme reaction, the crude enzyme solution prepared in Example 18 was concentrated ten-folds using a UF membrane. This solution was reacted overnight at 25° C. in 1 mL of a reaction solution comprising 200 mM potassium phosphate buffer (pH 6.5), 1 mM NADP^+, 2 U glucose dehydrogenase (Wako Pure Chemical Industries, Ltd.), 250 mM glucose, 0.2 U homolog enzyme, and 50 mM 3,4-dimethoxyphenylacetone. Optical purity was measured and the produced (S)-1-(3,4-dimethoxyphenyl)-2-propanol was quantified as in Example 6. As a result, YGL157w (pSE-YGP7) produced 93.7% ee (S)-1-(3,4-dimethoxyphenyl)-2-propanol at a yield of 66%, YGL039w (pSE-YGD9) produced 93.6% ee at a yield of 94%, and YDR541c (pSE-YDR1) produced 94.8% ee at a yield of 6%.
In the case of B1, the “Optical purity of the produced (S)-1-(3,4-dimethoxyphenyl)-2-propanol” value came to 93.6 % ee and the “Yield of (S)-1-(3,4-dimethoxyphenyl)-2-propanol” value was found to be 94%.
In the same order, the values of B2 are 93.7 % ee and 66%.
On the same counts, the results for B3 are 94.8 % ee and 6%.
